Data published in US7538241B2, “Hsp90 family protein inhibitors” (Kyowa Hakko Kogyo Co., Ltd., priority 2003, dated 2009).

Key:
Format in all cases: cell-based
[1] = test system: human mammary cancer-derived KPL-4 cells; assay: Cell growth inhibition test with KPL-4 cells (WST-1); conditions: KPL4, 72 hours, read-out: 50% growth inhibition concentration (GI50)
Method in brief: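 Growth inhibition from WST-1 absorbance difference (450 minus 655 nm) after 1 h, relative to untreated control as 100%, giving GI50. KPL-4 cells had 24 h pre-culture in DMEM/10% FCS before 72 h compound exposure at 37 °C under 5% CO2.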

[2] = test system: human multiple myeloma-derived KMS-11 cells; assay: Cell growth inhibition test with KMS-11 cells (WST-1); conditions: 72 hours, read-out: 50% growth inhibition concentration (GI50)
Procedure: In a 96-well plate (Nunc), human multiple myeloma-derived KMS-11 cells were sown in an amount of 4000 cells/well, and pre-incubated in 10% FCS-containing RPMI 1640 (Nissui) (incubation medium) in a 5% carbon dioxide incubator at 37° C. for 24 hours. Next, a DMSO solution of a test compound controlled at 10 mmol/L was stepwise diluted with the incubation medium, and added to each well in a total amount of 100 μL/well, and further incubated in the 5% carbon dioxide incubator at 37° C. for 72 hours. After the incubation, WST-1-labeled mixture (Rosh Diagnostic) diluted 2-fold with the incubation medium was added thereto in an amount of 20 μL/well, and incubated in the 5% carbon dioxide incubator at 37° C. for 2 hours. Using a microplate spectrophotometer (Biorad's Model 550), the absorbance at 450 nm and 655 nm of each well was measured. The cell growth inhibition activity of the test compound was indicated by the 50% growth inhibition concentration (GI50) thereof, like in Test Example 2.

[3] = test system: human chronic myelocytic leukemia-derived K562 cells; assay: Cell growth inhibition test with K562 cells (WST-1); conditions: 72 hours, read-out: 50% growth inhibition concentration (GI50)
Method in brief: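 K562 cells at 1500 cells/well in 10% FCS RPMI 1640, pre-incubated 5 h, then exposed to serially diluted compound for 72 h at 37° C, 5% CO2. Viability read by WST-1 after 2 h (absorbance 450/655 nm); GI50 reported.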

GI50 [1] [µM] | GI50 [2] [µM] | GI50 [3] [µM] | Compound
≤ 50 | ≤ 50 |  | CCc1c(O)cc(O)c(-c2ccccc2)c1CC(=O)OC [Compound 52, Methyl 2-ethyl-3,5-dihydroxy-6-phenylphenylacetate]
≤ 50 | ≤ 50 | ≤ 50 | CCc1c(O)cc(O)c(-c2ccccc2)c1CCO [Compound 84, 6-Ethyl-5-(2-hydroxyethyl)-4-phenylbenzene-1,3-diol]
≤ 50 | ≤ 50 | ≤ 50 | COCCc1c(C(C)=O)c(O)cc(O)c1-c1ccccc1 [Compound 92, 1-[2,4-Dihydroxy-6-(2-methoxyethyl)-5-phenylphenyl]ethanone]
≤ 50 | ≤ 50 | ≤ 50 | COCCc1c(C(C)=O)c(O)cc(O)c1-c1cccc(OC)c1 [Compound 116, 1-[2,4-Dihydroxy-6-(2-methoxyethyl)-5-(3-methoxyphenyl)phenyl]ethanone]
≤ 50 | ≤ 50 | ≤ 50 | CCc1c(O)cc(O)c(-c2cccc(OC)c2)c1CCOC [Compound 118, 6-Ethyl-5-(2-methoxyethyl)-4-(3-methoxyphenyl)benzene-1,3-diol]
≤ 50 | ≤ 50 | ≤ 50 | COCCc1c(C(C)=O)c(O)cc(O)c1-c1cccc(C)c1 [Compound 122, 1-[2,4-Dihydroxy-6-(2-methoxyethyl)-5-(3-methylphenyl)phenyl]ethanone]
≤ 50 | ≤ 50 | ≤ 50 | COCCc1c(C(C)=O)c(O)cc(O)c1-c1cccc(O)c1 [Compound 134, 1-[2,4-Dihydroxy-5-(3-hydroxyphenyl)-6-(2-methoxyethyl)phenyl]ethanone]
≤ 50 |  | ≤ 50 | COCCOCCc1c(C(C)=O)c(O)cc(O)c1-c1ccccc1 [Compound 136, 1-[2,4-Dihydroxy-6-[2-(2-methoxyethoxy)ethyl]-5-phenylphenyl)ethanone]
≤ 50 |  | ≤ 50 | COCCOCCc1c(C(C)=O)c(O)cc(O)c1-c1cccc(OC)c1 [Compound 137, 1-{2,4-dihydroxy-6-[2-(2-methoxyethoxy)ethyl]-5-(3-methoxyphenyl)phenyl}ethanone]
≤ 50 | ≤ 50 | ≤ 50 | CCc1c(O)cc(O)c(-c2cccc(OC)c2)c1CCOCCOC [Compound 138, 6-Ethyl-5-[2-(2-methoxyethoxy)ethyl]-4-(3-methoxyphenyl)benzene-1,3-diol]
≤ 50 | ≤ 50 | ≤ 50 | COCCOCCc1c(C(C)=O)c(O)cc(O)c1-c1cccc(C)c1 [Compound 139, 1-{2,4-dihydroxy-6-[2-(2-methoxyethoxy)ethyl]-5-(3-methylphenyl)phenyl}ethanone]
≤ 50 |  | ≤ 50 | CCc1c(O)cc(O)c(-c2cccc(OC)c2)c1CCO [Compound 143, 6-Ethyl-5-(2-hydroxyethyl)-4-(3-methoxyphenyl)benzene-1,3-diol]
≤ 50 |  | ≤ 50 | C=CCOCCCc1c(CC)c(O)cc(O)c1-c1ccccc1 [Compound 145, 5-(3-Allyloxypropyl)-6-ethyl-4-phenylbenzene-1,3-diol]
≤ 50 |  | ≤ 50 | CCc1c(O)cc(O)c(-c2ccccc2)c1CCCOCCOC [Compound 146, 6-Ethyl-5-[3-(2-methoxyethoxy)propyl]-4-phenylbenzene-1,3-diol]
≤ 50 | ≤ 50 | ≤ 50 | CCc1c(O)cc(O)c(-c2ccccc2)c1CCOCC(O)CO (stereo not drawn) [Compound 147, 5-[2-(2,3-Dihydroxypropoxy)ethyl]-6-ethyl-4-phenylbenzene-1,3-diol]
≤ 50 |  | ≤ 50 | CCc1c(O)cc(O)c(-c2ccccc2)c1CCCOCC(O)CO (stereo not drawn) [Compound 148, 5-[3-(2,3-Dihydroxypropoxy)propyl]-6-ethyl-4-phenylbenzene-1,3-diol]
≤ 50 |  | ≤ 50 | CCc1c(O)cc(O)c(-c2cccc(C)c2)c1CCOCCOC [Compound 149, 6-Ethyl-5-[2-(2-methoxyethoxy)ethyl]-4-(3-methylphenyl)benzene-1,3-diol]
≤ 50 |  | ≤ 50 | CCc1c(O)cc(O)c(-c2ccccc2)c1CCOCC(=O)NC [Compound 156, 2-[2-(2-Ethyl-3,5-dihydroxy-6-phenylphenyl)ethoxy]-N-methylacetamide]

GI50 [1] [µM] | GI50 [2] [µM] | GI50 [3] [µM] | Compound
≤ 50 | ≤ 50 | ≤ 50 | CCc1c(O)cc(O)c(-c2ccccc2)c1CCCOCC(=O)NC [Compound 159, 2-[3-(2-Ethyl-3,5-dihydroxy-6-phenylphenyl)propoxy]-N-methylacetamide]
≤ 50 |  | ≤ 50 | CCc1c(O)cc(O)c(-c2ccccc2)c1CCOCCO [Compound 161, 6-Ethyl-5-[2-(2-hydroxyethoxy)ethyl]-4-phenylbenzene-1,3-diol]
≤ 50 |  | ≤ 50 | CCc1c(O)cc(O)c(-c2ccccc2)c1CCCOCCO [Compound 162, 6-Ethyl-5-[3-(2-hydroxyethoxy)propyl]-4-phenylbenzene-1,3-diol]
≤ 50 |  | ≤ 50 | CCc1c(O)cc(O)c(-c2ccccc2)c1CCCOC(CO)CO [Compound 163, 5-{3-[Bis(hydroxymethyl)methoxy]propyl}-6-ethyl-4-phenylbenzene-1,3-diol]
≤ 50 |  | ≤ 50 | COCCOCCc1c(C(C)=O)c(O)cc(O)c1-c1cccc(O)c1 [Compound 165, 1-{2,4-Dihydroxy-5-(3-hydroxyphenyl)-6-[2-(2-methoxyethoxy)ethyl]phenyl}ethanone]
≤ 50 |  | ≤ 50 | CCc1c(O)cc(O)c(-c2ccccc2)c1CCCOCC(=O)NCCO [Compound 167, 2-[3-(2-Ethyl-3,5-dihydroxy-6-phenylphenyl)propoxy]-N-(2-hydroxyethyl)acetamide]
≤ 50 |  | ≤ 50 | CCc1c(O)cc(O)c(-c2cccc(O)c2)c1CCOC [Compound 171, 6-Ethyl-4-(3-hydroxyphenyl)-5-(2-methoxyethyl)benzene-1,3-diol]
≤ 50 |  | ≤ 50 | CCc1c(O)cc(O)c(-c2cccc(O)c2)c1CCO [Compound 172, 6-Ethyl-5-(2-hydroxyethyl)-4-(3-hydroxyphenyl)benzene-1,3-diol]
≤ 50 |  | ≤ 50 | CCc1c(O)cc(O)c(-c2cccc(O)c2)c1CCOCC(O)CO (stereo not drawn) [Compound 173, 5-[2-(2,3-dihydroxypropoxy)ethyl]-6-ethyl-4-(3-hydroxyphenyl)benzene-1,3-diol]
≤ 50 |  | ≤ 50 | CCc1c(O)cc(O)c(-c2ccccc2)c1CCOCCCO [Compound 175, 6-Ethyl-5-[2-(3-hydroxypropoxy)ethyl]-4-phenylbenzene-1,3-diol]
≤ 50 |  | ≤ 50 | CCc1c(O)cc(O)c(-c2cccc(OC)c2)c1CCOCC(O)CO (stereo not drawn) [Compound 189, 5-[2-(2,3-Dihydroxypropoxy)ethyl]-6-ethyl-4-(3-methoxyphenyl)benzene-1,3-diol]
 | ≤ 50 | ≤ 50 | CCc1c(O)cc(O)c(-c2ccccc2)c1CCc1ocnc1CO [Compound 210, 6-Ethyl-5-[2-(4-hydroxymethyl-1,3-oxazol-5-yl)ethyl]-4-phenylbenzene-1,3-diol]
 | ≤ 50 | ≤ 50 | CCc1c(O)cc(O)c(-c2cccc(C)c2)c1CC1O[C@@H](CO)[C@H](CO)O1 [Compound 229, 5-{[(4S,5S)-4,5-bis(hydroxymethyl)-1,3-dioxolan-2-yl]methyl}-6-ethyl-4-(3-methylphenyl)benzene-1,3-diol]
 | ≤ 50 | ≤ 50 | CCc1c(O)cc(O)c(-c2ccco2)c1CCOCCO [Compound 256, 6-Ethyl-4-(furan-2-yl)-5-[2-(2-hydroxyethoxy)ethyl]benzene-1,3-diol]
 | ≤ 50 | ≤ 50 | CCc1c(O)cc(O)c(-c2cccs2)c1CCOCCO [Compound 275, 6-Ethyl-5-[2-(2-hydroxyethoxy)ethyl]-4-(2-thienyl)benzene-1,3-diol]
≤ 50 | ≤ 50 |  | CCc1cc(-c2n[nH]c3cc(OC)ccc23)c(O)cc1O [Compound 276, 6-Ethyl-4-(6-methoxy-1H-indazol-3-yl)benzene-1,3-diol]
 | ≤ 50 | ≤ 50 | CCc1c(O)cc(O)c(-c2ccc(F)c(C)c2)c1CC1O[C@@H](CO)[C@H](CO)O1 [Compound 300, 5-{[(4S,5S)-4,5-Bis(hydroxymethyl)-1,3-dioxolan-2-yl]methyl}-6-ethyl-4-(4-fluoro-3-methylphenyl)benzene-1,3-diol]
 | ≤ 50 | ≤ 50 | CCc1c(O)cc(O)c(-c2ccccc2)c1Cc1nn(CCOC)c(=O)o1 [Compound 317, 5-[(2-Ethyl-3,5-dihydroxy-6-phenylphenyl)methyl]-3-(2-methoxyethyl)-3H-1,3,4-oxadiazol-2-one]

Compound | GI50 [1] [µM] | GI50 [2] [µM] | GI50 [3] [µM]
COC(=O)Cc1cc(O)cc(O)c1-c1ccc2ccccc2c1 [Compound 270, Methyl-3,5-dihydroxy-2-(2-naphthyl)phenylacetate] | ≤ 50 |  | ≤ 50
